From the NIST ThermoML archive (doi:10.1021/acs.jced.9b00011) come the findings set out here.

The nature of data set [1]: Molar enthalpy of transition or fusion. Conditions: Crystal; DSC.
The conditions of data set [2]: Crystal; DSC.

± gives the expanded uncertainty stated by the source.

Regarding `COc1ccc(OC)c(N)c1` [2,5-dimethoxyaniline], the “Molar enthalpy of transition or fusion” value in data set [1] is 5.55 ± 1.1 kcal/mol. The Triple point temperature in data set [2] came out at 352.56 ± 2.3 K.

Turning to `COc1cc(Cl)c(OC)cc1N` [4-chloro-2,5-dimethoxyaniline], in data set [1], the “Molar enthalpy of transition or fusion” value stood at 5.88 ± 0.908 kcal/mol. In addition, in data set [2], the Triple point temperature stood at 389.38 ± 3.7 K.
